Assay results taken from ChEMBL document CHEMBL1141145, “A chiral benzoquinolizine-2-carboxylic acid arginine salt active against vancomycin-resistant Staphylococcus aureus” (J Med Chem, 2005).
Values after ≈ are worked out from the molar mass of the structure shown. Numbered stars: 1 amine (or outer) side, 2 acyl side, 3 side chain; on linkers, the order of the positions; unused ones are H or OH. Bridge positions count the residues as written; N and C are the ends. Square brackets hold non-standard residues; d marks the D form. Peptide text beside a SMILES is read from it. * marks the point of attachment. X1 = O=C1C[C@@H](C(=O)[*:2])N([*:1])C[C@H]1CS[C@@H]1CN2CCC1CC2; NMePhe(4-NMe2) = CN[C@@H](Cc1ccc(N(C)C)cc1)C(=O)O; Picolinoyl(3-OH) = O=C(c1ncccc1O)*; Phg = N[C@H](C(=O)O)c1ccccc1; dAbu = CC[C@@H](N)C(=O)O

What was measured:
Staphylococcus aureus [1] = experiment: Minimum inhibitory concentration against vancomycin intermediate Staphylococcus aureus MU 3; type: functional
Staphylococcus aureus [2] = experiment: Minimum inhibitory concentration against vancomycin-resistant Staphylococcus aureus (Hershey); type: functional
Staphylococcus aureus [3] = experiment: microbe, parasite or virus in culture
Staphylococcus aureus [4] = experiment: microbe, parasite or virus in culture; remark: listed apart in the source
Staphylococcus aureus [5] = experiment: microbe, parasite or virus in culture; remark: listed apart in the source
Staphylococcus aureus [6] = experiment: Minimum inhibitory concentration against vancomycin intermediate Staphylococcus aureus MU 50; type: functional
Escherichia coli = experiment: microbe, parasite or virus in culture; details: ATCC 25922
[7] = biological target: DNA topoisomerase 4 subunit A (Staphylococcus aureus) (UniProt P0C1U9)
Sequence of DNA topoisomerase 4 subunit A (Staphylococcus aureus) (P0C1U9 whole entry): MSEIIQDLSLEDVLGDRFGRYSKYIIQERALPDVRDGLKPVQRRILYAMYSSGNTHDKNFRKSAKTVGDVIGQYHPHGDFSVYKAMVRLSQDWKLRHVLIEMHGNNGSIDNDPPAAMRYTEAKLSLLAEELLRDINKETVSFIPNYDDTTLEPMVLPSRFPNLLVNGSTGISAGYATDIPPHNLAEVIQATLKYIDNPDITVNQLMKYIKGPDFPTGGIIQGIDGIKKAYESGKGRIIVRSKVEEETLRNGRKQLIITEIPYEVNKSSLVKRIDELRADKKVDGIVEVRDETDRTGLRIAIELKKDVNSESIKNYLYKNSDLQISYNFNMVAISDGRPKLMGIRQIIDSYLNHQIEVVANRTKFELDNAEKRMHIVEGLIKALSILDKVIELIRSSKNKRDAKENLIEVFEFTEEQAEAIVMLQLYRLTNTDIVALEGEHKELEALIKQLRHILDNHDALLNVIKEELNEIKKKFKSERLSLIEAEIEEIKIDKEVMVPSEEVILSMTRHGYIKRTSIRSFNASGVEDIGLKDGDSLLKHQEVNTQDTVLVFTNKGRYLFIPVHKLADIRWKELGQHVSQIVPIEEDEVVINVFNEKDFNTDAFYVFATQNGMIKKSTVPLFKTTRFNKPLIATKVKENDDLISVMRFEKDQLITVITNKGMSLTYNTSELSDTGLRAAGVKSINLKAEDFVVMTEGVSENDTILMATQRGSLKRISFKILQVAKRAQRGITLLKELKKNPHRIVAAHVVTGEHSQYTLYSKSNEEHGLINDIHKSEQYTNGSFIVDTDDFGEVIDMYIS

Streptococcus sanguinis = experiment: Minimum inhibitory concentration against Streptococcus sanguis ATCC 10556; type: functional
[8] = system: Staphylococcus haemolyticus; experiment: Minimum inhibitory concentration against Staphylococcus haemolyticus ATCC 29970; type: functional
Streptococcus agalactiae = experiment: Minimum inhibitory concentration against Streptococcus agalactiae ATCC 13813; type: functional
[9] = biological target: T1, DNA gyrase (Staphylococcus aureus) (UniProt P0A0K8+P20831)
T1 sequence (P0A0K8 2-644 limits assumed): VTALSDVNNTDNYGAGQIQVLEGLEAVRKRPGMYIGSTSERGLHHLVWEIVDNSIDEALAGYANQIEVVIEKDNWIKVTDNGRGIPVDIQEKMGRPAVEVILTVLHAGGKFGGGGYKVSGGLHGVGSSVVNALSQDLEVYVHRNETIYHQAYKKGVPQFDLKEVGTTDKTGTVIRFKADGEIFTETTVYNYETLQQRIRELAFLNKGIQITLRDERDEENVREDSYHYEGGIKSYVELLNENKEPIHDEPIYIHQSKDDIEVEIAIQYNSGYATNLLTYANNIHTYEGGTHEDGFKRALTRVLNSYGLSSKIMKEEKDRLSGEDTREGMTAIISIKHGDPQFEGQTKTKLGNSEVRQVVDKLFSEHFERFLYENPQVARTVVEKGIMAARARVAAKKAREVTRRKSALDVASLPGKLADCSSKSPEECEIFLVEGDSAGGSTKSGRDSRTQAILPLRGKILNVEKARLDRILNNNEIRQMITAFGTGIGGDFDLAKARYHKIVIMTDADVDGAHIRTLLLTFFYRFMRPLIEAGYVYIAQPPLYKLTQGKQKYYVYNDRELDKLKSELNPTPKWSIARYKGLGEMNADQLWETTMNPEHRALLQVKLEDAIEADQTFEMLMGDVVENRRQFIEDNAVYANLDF
T1 sequence (P20831 whole entry partner): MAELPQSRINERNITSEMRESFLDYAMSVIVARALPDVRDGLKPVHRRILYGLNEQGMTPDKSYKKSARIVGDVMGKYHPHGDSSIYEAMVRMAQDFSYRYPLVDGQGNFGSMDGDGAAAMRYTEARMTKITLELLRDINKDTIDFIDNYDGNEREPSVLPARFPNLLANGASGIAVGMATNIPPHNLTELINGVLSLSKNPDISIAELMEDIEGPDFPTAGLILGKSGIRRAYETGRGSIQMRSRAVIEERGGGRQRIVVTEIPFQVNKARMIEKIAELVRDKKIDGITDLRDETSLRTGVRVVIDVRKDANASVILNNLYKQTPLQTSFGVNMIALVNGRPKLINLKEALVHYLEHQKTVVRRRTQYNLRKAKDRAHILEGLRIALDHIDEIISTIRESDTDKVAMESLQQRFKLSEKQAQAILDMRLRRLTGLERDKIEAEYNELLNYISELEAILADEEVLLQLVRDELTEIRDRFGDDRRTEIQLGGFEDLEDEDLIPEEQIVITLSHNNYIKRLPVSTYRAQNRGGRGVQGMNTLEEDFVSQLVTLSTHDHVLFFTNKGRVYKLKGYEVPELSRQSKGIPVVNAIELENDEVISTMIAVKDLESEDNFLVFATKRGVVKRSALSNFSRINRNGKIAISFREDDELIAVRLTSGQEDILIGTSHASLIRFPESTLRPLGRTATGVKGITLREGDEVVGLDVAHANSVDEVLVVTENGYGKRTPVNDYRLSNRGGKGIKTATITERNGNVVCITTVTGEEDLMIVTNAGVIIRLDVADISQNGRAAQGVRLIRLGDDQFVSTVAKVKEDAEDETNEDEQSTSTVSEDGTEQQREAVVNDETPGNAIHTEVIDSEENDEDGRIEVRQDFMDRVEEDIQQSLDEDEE

Staphylococcus aureus [10] = experiment: Minimum inhibitory concentration against Staphylococcus aureus grlA mutant; type: functional
Streptococcus pyogenes = experiment: Minimum inhibitory concentration against Streptococcus pyogenes ATCC 19615; type: functional
Enterococcus faecalis = experiment: Minimum inhibitory concentration against Enterococcus faecalis ATCC 29212; type: functional
[11] = system: Staphylococcus saprophyticus; experiment: Minimum inhibitory concentration against Staphylococcus saprophyticus ATCC 15305; type: functional
Phocaeicola vulgatus = experiment: Minimum inhibitory concentration against Bacteroides vulgatus ATCC 29327; type: functional
Klebsiella pneumoniae = experiment: Minimum inhibitory concentration against Klebsiella pneumoniae ATCC 10031; type: functional
Pseudomonas aeruginosa = experiment: microbe, parasite or virus in culture; details: ATCC 27853
Staphylococcus aureus [12] = experiment: Minimum inhibitory concentration against Staphylococcus aureus ATCC 25923; type: functional
physchem [13] = details: octanol/water, pH 7.4
physchem [14] = experiment: physchem
physchem [15] = experiment: physchem; remark: listed apart in the source
physchem [16] = experiment: physchem; remark: listed apart in the source
physchem [17] = details: octanol/water, pH 2
Staphylococcus aureus [18] = experiment: Minimum inhibitory concentration against Staphylococcus aureus gyrA/grlA double mutant; type: functional
[19] = biological target: DNA topoisomerase 4 subunit A (Staphylococcus aureus) (UniProt P0C1U9); remark: listed apart in the source
Staphylococcus aureus [20] = experiment: Minimum inhibitory concentration against Staphylococcus aureus gyrA mutant; type: functional
[21] = biological target: T1, DNA gyrase (Staphylococcus aureus); remark: listed apart in the source
[22] = biological target: DNA topoisomerase 4 subunit A (Staphylococcus aureus, UniProt P0C1U9)
Sequence of DNA topoisomerase 4 subunit A (P0C1U9 whole entry): as the sequence (P0C1U9 whole entry) above

DNA gyrase = DNA gyrase (Staphylococcus aureus, UniProt P0A0K8+P20831)
Sequence of DNA gyrase (P0A0K8 whole entry): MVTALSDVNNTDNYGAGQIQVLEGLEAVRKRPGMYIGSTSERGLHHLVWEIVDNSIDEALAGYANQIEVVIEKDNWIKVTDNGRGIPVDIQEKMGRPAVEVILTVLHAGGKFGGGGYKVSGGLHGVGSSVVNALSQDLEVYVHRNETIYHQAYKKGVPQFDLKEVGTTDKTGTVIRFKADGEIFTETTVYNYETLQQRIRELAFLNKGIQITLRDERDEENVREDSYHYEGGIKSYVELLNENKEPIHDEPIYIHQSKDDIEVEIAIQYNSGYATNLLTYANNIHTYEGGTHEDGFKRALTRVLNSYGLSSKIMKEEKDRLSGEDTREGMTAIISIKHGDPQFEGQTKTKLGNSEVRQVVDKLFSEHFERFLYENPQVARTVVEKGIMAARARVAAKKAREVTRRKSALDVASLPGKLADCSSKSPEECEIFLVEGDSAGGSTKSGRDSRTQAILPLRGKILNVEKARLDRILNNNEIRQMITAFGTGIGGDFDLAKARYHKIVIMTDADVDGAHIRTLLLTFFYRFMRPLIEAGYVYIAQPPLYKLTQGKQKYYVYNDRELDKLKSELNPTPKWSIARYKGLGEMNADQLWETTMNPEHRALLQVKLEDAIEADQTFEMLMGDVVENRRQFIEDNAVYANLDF
Sequence of DNA gyrase (P20831 whole entry): as the sequence (P20831 whole entry partner) above

Staphylococcus aureus [23] = experiment: Minimum inhibitory concentration against Staphylococcus aureus ISP 794 (wild type); type: functional
Staphylococcus aureus [24] = experiment: Minimum inhibitory concentration against Vancomycin intermediate Staphylococcus aureus MU 50; type: functional
Mus musculus [25] = experiment: Efficacy against mice infected with Staphylococcus aureus ATCC 25923 upon s.c. administration; type: functional; details: sc
Mus musculus [26] = experiment: Efficacy against mice infected with MRSA-33 upon s.c. administration; type: functional; details: sc
Mus musculus [27] = experiment: Efficacy against mice infected with MRSA-32 upon s.c. administration; type: functional; details: MRSA-32, sc
Streptococcus pneumoniae [28] = experiment: microbe, parasite or virus in culture; details: ATCC 6303
Staphylococcus aureus [29] = experiment: Frequency of resistance emergence for methicillin resistant Staphylococcus aureus-32; type: functional
Staphylococcus aureus [30] = experiment: Ratio of MPC to MIC against methicillin resistant Staphylococcus aureus-33; type: functional
Staphylococcus aureus [31] = experiment: Ratio of MPC to MIC against methicillin resistant Staphylococcus aureus-5023; type: functional
Staphylococcus aureus [32] = experiment: Mutant prevention concentration aganist methicillin resistant Staphylococcus aureus-33 done for 48 hr at 37 degree C with compound; type: functional
Streptococcus pneumoniae [33] = experiment: microbe, parasite or virus in culture; details: ATCC 49619
Staphylococcus aureus [34] = experiment: Frequency of resistance emergence for methicillin resistant Staphylococcus aureus-33; type: functional
Staphylococcus aureus [35] = experiment: Mutant prevention concentration aganist methicillin resistant Staphylococcus aureus-5023 done for 48 hr at 37 degree C with compound; type: functional
Staphylococcus aureus [36] = experiment: Frequency of resistance emergence for methicillin resistant Staphylococcus aureus-5023; type: functional
Staphylococcus aureus [37] = experiment: Mutant prevention concentration against methicillin resistant Staphylococcus aureus-32 done for 48 h at 37 degree C with compound; type: functional
Staphylococcus aureus [38] = experiment: Ratio of MPC to MIC aganist methicillin resistant Staphylococcus aureus-32; type: functional

## CCN(CC)CCS(=O)(=O)[C@@H]1CCN2C(=O)c3coc(n3)CC(=O)C[C@H](O)/C=C(C)/C=C/CNC(=O)/C=C/[C@@H](C)[C@@H](C(C)C)OC(=O)[C@@H]12.CC[C@H]1NC(=O)[C@@H](NC(=O)c2ncccc2O)[C@@H](C)OC(=O)[C@H](c2ccccc2)NC(=O)[C@@H]2CC(=O)[C@H](CS[C@@H]3CN4CCC3CC4)CN2C(=O)[C@H](Cc2ccc(N(C)C)cc2)N(C)C(=O)[C@@H]2CCCN2C1=O [QUINUPRISTIN/DALFOPRISTIN] ({Picolinoyl(3-OH)}-T[dAbu]P[NMePhe(4-NMe2)][X1][Phg]; ester 1-C)
Staphylococcus aureus [1]
  MIC: 1 µg/mL
Staphylococcus aureus [2]
  MIC: 1 µg/mL
Staphylococcus aureus [3]
  MIC: 0.5 µg/mL
Staphylococcus aureus [4]
  MIC: 1 µg/mL
Staphylococcus aureus [5]
  MIC: 1 µg/mL
Staphylococcus aureus [6]
  MIC: 1 µg/mL

## CCCCCCCCCC(=O)N[C@@H](Cc1c[nH]c2ccccc12)C(=O)N[C@H](CC(N)=O)C(=O)N[C@@H](CC(=O)O)C(=O)N[C@@H]1C(=O)NCC(=O)N[C@@H](CCCN)C(=O)N[C@@H](CC(=O)O)C(=O)N[C@H](C)C(=O)N[C@@H](CC(=O)O)C(=O)NCC(=O)N[C@H](CO)C(=O)N[C@@H]([C@H](C)CC(=O)O)C(=O)N[C@@H](CC(=O)c2ccccc2N)C(=O)O[C@@H]1C
Staphylococcus aureus [1]
  MIC: 0.25 µg/mL (≈ 0.154 µM)
Staphylococcus aureus [2]
  MIC: 0.5 µg/mL (≈ 0.309 µM)
Staphylococcus aureus [3]
  MIC: 0.25 µg/mL (≈ 0.154 µM)
Staphylococcus aureus [4]
  MIC: 250 µg/mL (≈ 154 µM)
Staphylococcus aureus [5]
  MIC: 0.25 µg/mL (≈ 0.154 µM)
Staphylococcus aureus [6]
  MIC: 0.5 µg/mL (≈ 0.309 µM)

## O=C(O)c1cn(C2CC2)c2cc(N3CCNCC3)c(F)cc2c1=O [CIPROFLOXACIN]
Escherichia coli
  MIC: < 0.008 µg/mL
[7]
  CC50: 2.5 µg/mL (≈ 7.54 µM)
Streptococcus sanguinis
  MIC: 2 µg/mL (≈ 6.04 µM)
[8]
  MIC: 0.25 µg/mL (≈ 0.754 µM)
Streptococcus agalactiae
  MIC: 2 µg/mL (≈ 6.04 µM)
[9]
  CC50: 50 µg/mL (≈ 151 µM)
Staphylococcus aureus [10]
  MIC: 1 µg/mL (≈ 3.02 µM)
Streptococcus pyogenes
  MIC: 0.5 µg/mL (≈ 1.51 µM)
Enterococcus faecalis
  MIC: 2 µg/mL (≈ 6.04 µM)
[11]
  MIC: 0.5 µg/mL (≈ 1.51 µM)
Phocaeicola vulgatus
  MIC: 8 µg/mL (≈ 24.1 µM)
Klebsiella pneumoniae
  MIC: < 0.008 µg/mL
Pseudomonas aeruginosa
  MIC: 1 µg/mL (≈ 3.02 µM)
Staphylococcus aureus [12]
  MIC: 1 µg/mL (≈ 3.02 µM)

## N[C@@H]1[C@H]2CN(c3nc4c(cc3F)c(=O)c(C(=O)O)cn4-c3ccc(F)cc3F)C[C@@H]12 [TROVAFLOXACIN]
Physchem [13]
  logD: 0.42
Physchem [14]
  pKa: 8.13
Physchem [15]
  pKa: 4.45
Physchem [16]
  pKa: 8.02
Physchem [17]
  logD: -0.35

## CC1CCc2c(N3CCC(O)CC3)c(F)cc3c(=O)c(C(=O)O)cn1c23 (centres undefined) [NADIFLOXACIN]
Staphylococcus aureus [18]
  MIC: 32 µg/mL (≈ 88.8 µM)
Staphylococcus aureus [10]
  MIC: 1 µg/mL (≈ 2.77 µM)
[19]
  CC50: > 10 µg/mL
Staphylococcus aureus [20]
  MIC: 1 µg/mL (≈ 2.77 µM)
[21]
  CC50: 25 µg/mL (≈ 69.4 µM)
Physchem [15]
  pKa: 6.8
[22]
  IC50: > 27.7 µM
DNA gyrase
  IC50: 27.7 µM
Staphylococcus aureus [23]
  MIC: 0.25 µg/mL (≈ 0.694 µM)

## C[C@H]1COc2c(N3CCN(C)CC3)c(F)cc3c(=O)c(C(=O)O)cn1c23.C[C@H]1COc2c(N3CCN(C)CC3)c(F)cc3c(=O)c(C(=O)O)cn1c23.O [LEVOFLOXACIN]
Staphylococcus aureus [1]
  MIC: 16 µg/mL
Staphylococcus aureus [24]
  MIC: 8 µg/mL
Staphylococcus aureus [2]
  MIC: 32 µg/mL
Mus musculus [25]
  ED50: 5.92 mg/kg
Streptococcus sanguinis
  MIC: 2 µg/mL
[8]
  MIC: 0.12 µg/mL
Streptococcus agalactiae
  MIC: 1 µg/mL
Mus musculus [26]
  ED50: > 100 mg/kg
Streptococcus pyogenes
  MIC: 1 µg/mL
Staphylococcus aureus [3]
  MIC: 16 µg/mL
Staphylococcus aureus [4]
  MIC: 16 µg/mL
Mus musculus [27]
  ED50: > 100 mg/kg
Staphylococcus aureus [5]
  MIC: 8 µg/mL
Enterococcus faecalis
  MIC: 1 µg/mL
[11]
  MIC: 0.5 µg/mL
Phocaeicola vulgatus
  MIC: 1 µg/mL
Klebsiella pneumoniae
  MIC: 0.008 µg/mL
Staphylococcus aureus [12]
  MIC: 1 µg/mL

## COc1c(N2CCNC(C)C2)c(F)cc2c(=O)c(C(=O)O)cn(C3CC3)c12 (centres undefined) [GATIFLOXACIN]
Physchem [13]
  logD: -0.79
Escherichia coli
  MIC: 0.03 µg/mL (≈ 0.0799 µM)
Streptococcus pneumoniae [28]
  MIC: 0.5 µg/mL (≈ 1.33 µM)
Streptococcus sanguinis
  MIC: 0.5 µg/mL (≈ 1.33 µM)
Staphylococcus aureus [29]
  FRE: 0.000451
[8]
  MIC: 0.06 µg/mL (≈ 0.16 µM)
Streptococcus agalactiae
  MIC: 0.25 µg/mL (≈ 0.666 µM)
Staphylococcus aureus [30]
  MPC/MIC: 3.5
Streptococcus pyogenes
  MIC: 0.25 µg/mL (≈ 0.666 µM)
Staphylococcus aureus [31]
  MPC/MIC: 2
Staphylococcus aureus [32]
  MPC: 14 µg/mL
Streptococcus pneumoniae [33]
  MIC: 0.5 µg/mL (≈ 1.33 µM)
Staphylococcus aureus [34]
  FRE: 0.0041
Staphylococcus aureus [35]
  MPC: 8 µg/mL
Physchem [15]
  pKa: 5.97
Physchem [16]
  pKa: 9.82
Enterococcus faecalis
  MIC: 0.25 µg/mL (≈ 0.666 µM)
[11]
  MIC: 0.25 µg/mL (≈ 0.666 µM)
Staphylococcus aureus [36]
  FRE: 3.51e-06
Phocaeicola vulgatus
  MIC: 0.5 µg/mL (≈ 1.33 µM)
Klebsiella pneumoniae
  MIC: 0.008 µg/mL (≈ 0.0213 µM)
Physchem [17]
  logD: -1.14
Staphylococcus aureus [37]
  MPC: 8 µg/mL
Pseudomonas aeruginosa
  MIC: 4 µg/mL (≈ 10.7 µM)
Staphylococcus aureus [38]
  MPC/MIC: 2
Staphylococcus aureus [12]
  MIC: 0.1 µg/mL (≈ 0.266 µM)
